The record followed here is patent US7439245B2, “Compounds” (Glaxo Group Limited, priority 2003, dated 2008).

SMILES strings stand for the structures.

The assay addresses T1, human cloned 5-HT6 receptors (Homo sapiens, UniProt P50406).
T1 construct: expressed in transfected cells
Kind of assay: 5-HT6 receptor affinity (procedures outlined in WO98/27081). Format: binding. The following applies: read-out: pKi values at human cloned 5-HT6 receptors (converted). An excerpt:
Compounds can be tested following the procedures outlined in WO98/27081.

T1 sequence (P50406 whole entry): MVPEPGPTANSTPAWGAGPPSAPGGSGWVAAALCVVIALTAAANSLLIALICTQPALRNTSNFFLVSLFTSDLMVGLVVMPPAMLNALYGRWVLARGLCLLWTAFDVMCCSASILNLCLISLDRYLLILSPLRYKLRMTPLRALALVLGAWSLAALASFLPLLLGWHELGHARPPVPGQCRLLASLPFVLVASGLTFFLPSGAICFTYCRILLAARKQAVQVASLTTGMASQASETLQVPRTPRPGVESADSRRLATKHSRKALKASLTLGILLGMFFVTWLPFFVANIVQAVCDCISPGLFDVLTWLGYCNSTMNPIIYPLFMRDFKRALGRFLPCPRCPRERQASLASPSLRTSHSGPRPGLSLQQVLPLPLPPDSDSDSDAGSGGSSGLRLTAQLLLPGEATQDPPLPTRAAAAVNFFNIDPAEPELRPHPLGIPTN

`O=S(=O)(c1ccccc1)c1cccc(N2CCNCC2)c1Cl` [Example E2, 1-(3-Phenylsulfonyl-2-chlorophenyl)piperazine]: the Ki is under 10 nM.

As for `O=S(=O)(c1ccccc1)c1cccc(N2CCNCC2)c1` [Example E1, 1-(3-Phenylsulfonyl-phenyl)piperazine], the Ki was under 10 nM.
